These results are taken from US20060014730A1, “Ansamycin formulations and methods for producing and using same” (Conforma Therapeutics Corporation, priority 2002, published 2006).

The nature of data set [1]: Dissolution of 17-AAG in Phospholipon in Miglyol solution without ethanol. Format: physicochemical. As to conditions: lower melting point form crystallized from isopropanol rather than ethanol; room temperature. An excerpt: Alternatively, 17-AAG can be brought […], adding to this the drug, e.g., 17-AAG, and mixing, e.g., by stirring and/or sonication.
The nature of data set [2]: Drug concentration achieved in the emulsion. It is filed as physicochemical.
For data set [3] the following is noted: cited from earlier work; for Cmax: human, in vivo.
For data set [4], the system named is adult patients with advanced solid tumors. As to conditions: daily 1-hour infusion for 5 days every three weeks; cited from earlier work.
Where [5] appears, read: adult patients, daily 1-hour infusion for 5 days every three weeks.

Like-named read-outs stand apart in the source and are kept apart here.

As for `C=CCNC1=C2C[C@@H](C)C[C@H](OC)[C@H](O)[C@@H](C)/C=C(\C)[C@H](OC(N)=O)[C@@H](OC)/C=C\C=C(/C)C(=O)NC(=CC1=O)C2=O` [Compound 17-AAG, 17-allylamino-geldanamycin], the “dissolution into the Phospholipon in Miglyol solution” value in data set [1] was “more readily can be dissolved”. In addition, in data set [2] (oil phase alone), the “concentration achieved in the oil phase alone” value was 20000 to 30000 µg/mL. For the same compound, in data set [2] (whole emulsion), the concentration achieved overall was at most 3000 µg/mL. Also, in data set [3] (setting [5]), the “clearance (mean+/-SD)” value was 41.0 ± 13.5 L/h, the “steady-state volume (mean+/-SD)” value is 86.6+/−34.6 L/m^2 and the “terminal half-life (mean+/-SD)” value was 2.5 ± 0.5 h. For the same compound, the Cmax in data set [3] (40 mg/m2) was 1860 nM. In data set [3] (56 mg/m2), the Cmax was 3170 nM. Besides, the “maximum tolerated dose (MTD)” value in data set [4] is recorded as 40 mg/m^2.

As usually defined, the Cmax is the highest concentration seen after dosing.
